In patent US7879881B2, “Piperidinyl compounds that selectively bind integrins” (Janssen Pharmaceutica NV, priority 2002, dated 2011):
Read-outs that look alike come from different tables or passages of the source.

Key:
Human αvβ3 = target: T1, Human αvβ3 (Homo sapiens, UniProt P05106+P06756); assay: In Vitro Solid Phase Purified αvβ3 Binding Assay (vitronectin/αvβ3); settings: vitronectin binding to immobilized purified human αvβ3, mean ± spread
T1 construct: purchased Chemicon International Inc., Temecula, Calif
Procedure: In Vitro Solid Phase Purified αvβ3 Binding Assay
(§1) Human αvβ3 (Chemicon International Inc., Temecula, Calif.), at a concentration of 1 μg/ml dissolved in Tris buffer (20 mM Tris, 1 mM CaCl2, 1 mM MgCl2, 10 μM MnCl2, 150 mM NaCl), was immobilized on Immulon 96 well plates (Dynex Technologies, Chantilly, Va.) overnight at 4° C. Plates were washed and treated with blocking buffer (3% BSA in Tris buffer) for 2 h at 37° C. Plates were then rinsed 2 times with assay buffer comprised of Tris buffer. Synthesized compounds were added to wells in duplicate immediately prior to the addition of 2 nM vitronectin (Sigma, St. Louis, Mo.). Following a 3 hour incubation at 37° C., plates were washed 5 times in assay buffer. An anti-human vitronectin IgG rabbit polyclonal antibody (Calbiochem, San Diego, Calif.) was added (1:2000) and plates were incubated for 1 hour at room temperature. VectaStain ABC peroxidase kit reagents (Vector Laboratories, Burlingame, Calif.) employing a biotin labeled anti-rabbit IgG, were utilized for detection of bound antibody. Plates were read at 490 nm on a Molecular Devices (Sunnyvale, Calif.) microplate reader.

GP IIb/IIIa = GP IIb/IIIa (Homo sapiens, UniProt P05106+P08514); assay: In Vitro Solid Phase Purified GP IIb/IIIa Binding Assay (biotinylated fibrinogen); settings: biotinylated fibrinogen binding to immobilized purified GP IIb/IIIa, mean ± spread
Procedure: In Vitro Solid Phase Purified GP IIb/IIIa Binding Assay
The plate was covered and incubated overnight at 4° C. The GP IIb/IIIa solution was discarded and 150 μL of 5% BSA was added and incubated at RT for 1-3 h. The plate was washed extensively with modified Tyrodes buffer. Biotinylated fibrinogen (25 μL/well) at 2× final concentration was added to the wells that contain the test compounds (25 μL/well). The plate was covered and incubated at RT for 2-4 h. Twenty minutes prior to incubation completion, one drop of Reagent A (VectaStain ABC Horseradish Peroxidase kit, Vector Laboratories, Inc.) and one drop Reagent B were added with mixing to 5 mL modified Tyrodes buffer mix and let stand. The ligand solution was discarded and the plate washed (5×200 μL/well) with modified Tyrodes buffer. […] The Vecta Stain solution was discarded and the wells washed (5×200 μL/well) with modified Tyrodes buffer. Developing buffer (10 mL of 50 mM citrate/phosphate buffer @ pH 5.3, 6 mg o-phenylenediamine, 6 μL 30% H2O2; 50 μL/well) was added and incubated at RT for 3-5 min and then 2 N H2SO4 (50 μL/well) was added.

human purified αVβ5 = target: T2, human purified αVβ5 (Homo sapiens, UniProt P06756+P18084); assay: In Vitro Solid Phase Purified αcβ5 Binding Assay (vitronectin/αVβ5); settings: vitronectin binding to immobilized purified human αVβ5, mean ± spread
T2 construct: purchased Chemicon International, Inc
Procedure: as §1
In Vitro Solid Phase Purified αcβ5 Binding Assay
All other aspects of the assay including buffers, reagents and incubation times remain unchanged.

T1 sequence (P06756 31-889 limits assumed): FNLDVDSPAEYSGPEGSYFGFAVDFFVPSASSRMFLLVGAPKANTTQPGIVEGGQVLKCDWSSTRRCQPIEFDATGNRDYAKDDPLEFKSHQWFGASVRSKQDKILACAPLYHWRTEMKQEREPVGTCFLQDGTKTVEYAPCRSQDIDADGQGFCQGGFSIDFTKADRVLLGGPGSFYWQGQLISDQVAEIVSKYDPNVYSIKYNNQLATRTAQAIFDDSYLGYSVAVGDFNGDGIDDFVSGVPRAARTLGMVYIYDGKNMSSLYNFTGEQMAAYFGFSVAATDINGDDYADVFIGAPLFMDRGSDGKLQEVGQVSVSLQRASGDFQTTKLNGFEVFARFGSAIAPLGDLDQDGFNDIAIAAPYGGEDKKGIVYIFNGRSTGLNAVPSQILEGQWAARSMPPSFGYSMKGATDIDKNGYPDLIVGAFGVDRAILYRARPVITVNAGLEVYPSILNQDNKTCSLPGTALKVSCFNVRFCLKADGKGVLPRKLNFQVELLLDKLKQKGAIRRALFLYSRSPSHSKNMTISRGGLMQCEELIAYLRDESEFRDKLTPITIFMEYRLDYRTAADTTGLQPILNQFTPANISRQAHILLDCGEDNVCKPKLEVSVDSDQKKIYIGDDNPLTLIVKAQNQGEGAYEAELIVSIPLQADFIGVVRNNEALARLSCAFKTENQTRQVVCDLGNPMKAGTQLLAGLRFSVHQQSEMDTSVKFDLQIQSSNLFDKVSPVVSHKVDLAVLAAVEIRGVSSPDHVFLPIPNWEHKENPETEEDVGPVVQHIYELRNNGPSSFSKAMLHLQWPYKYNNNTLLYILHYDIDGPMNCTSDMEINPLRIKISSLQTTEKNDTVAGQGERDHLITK
T1 sequence (P06756 891-1048 partner limits assumed): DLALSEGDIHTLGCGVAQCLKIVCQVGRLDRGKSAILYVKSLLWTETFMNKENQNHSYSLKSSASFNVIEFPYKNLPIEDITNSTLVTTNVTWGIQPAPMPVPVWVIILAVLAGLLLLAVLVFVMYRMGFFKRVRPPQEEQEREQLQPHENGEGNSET
T1 sequence (P05106 27-788): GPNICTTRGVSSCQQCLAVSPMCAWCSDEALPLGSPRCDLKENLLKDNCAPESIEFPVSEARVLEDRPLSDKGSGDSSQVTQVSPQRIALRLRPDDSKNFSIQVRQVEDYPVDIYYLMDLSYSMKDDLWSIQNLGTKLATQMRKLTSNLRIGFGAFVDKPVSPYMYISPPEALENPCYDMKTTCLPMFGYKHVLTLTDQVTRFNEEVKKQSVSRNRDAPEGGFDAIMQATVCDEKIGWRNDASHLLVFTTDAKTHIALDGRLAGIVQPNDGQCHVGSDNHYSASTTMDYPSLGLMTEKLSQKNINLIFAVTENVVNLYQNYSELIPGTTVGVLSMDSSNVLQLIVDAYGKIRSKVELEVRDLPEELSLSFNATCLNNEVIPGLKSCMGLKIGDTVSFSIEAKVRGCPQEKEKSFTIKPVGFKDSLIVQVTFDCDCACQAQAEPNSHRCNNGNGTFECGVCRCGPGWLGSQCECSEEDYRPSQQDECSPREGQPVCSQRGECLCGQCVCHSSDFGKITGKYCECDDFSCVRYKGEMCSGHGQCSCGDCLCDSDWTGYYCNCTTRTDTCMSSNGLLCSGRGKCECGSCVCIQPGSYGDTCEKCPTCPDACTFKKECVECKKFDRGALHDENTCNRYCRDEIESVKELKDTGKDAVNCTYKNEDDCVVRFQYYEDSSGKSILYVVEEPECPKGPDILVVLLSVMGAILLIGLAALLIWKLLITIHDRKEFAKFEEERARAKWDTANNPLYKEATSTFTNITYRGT
T2 sequence (P06756 31-889 limits assumed): as the sequence (P06756 31-889 limits assumed) above
T2 sequence (P06756 891-1048 partner limits assumed): as the sequence (P06756 891-1048 partner limits assumed) above
T2 sequence (P18084 24-799): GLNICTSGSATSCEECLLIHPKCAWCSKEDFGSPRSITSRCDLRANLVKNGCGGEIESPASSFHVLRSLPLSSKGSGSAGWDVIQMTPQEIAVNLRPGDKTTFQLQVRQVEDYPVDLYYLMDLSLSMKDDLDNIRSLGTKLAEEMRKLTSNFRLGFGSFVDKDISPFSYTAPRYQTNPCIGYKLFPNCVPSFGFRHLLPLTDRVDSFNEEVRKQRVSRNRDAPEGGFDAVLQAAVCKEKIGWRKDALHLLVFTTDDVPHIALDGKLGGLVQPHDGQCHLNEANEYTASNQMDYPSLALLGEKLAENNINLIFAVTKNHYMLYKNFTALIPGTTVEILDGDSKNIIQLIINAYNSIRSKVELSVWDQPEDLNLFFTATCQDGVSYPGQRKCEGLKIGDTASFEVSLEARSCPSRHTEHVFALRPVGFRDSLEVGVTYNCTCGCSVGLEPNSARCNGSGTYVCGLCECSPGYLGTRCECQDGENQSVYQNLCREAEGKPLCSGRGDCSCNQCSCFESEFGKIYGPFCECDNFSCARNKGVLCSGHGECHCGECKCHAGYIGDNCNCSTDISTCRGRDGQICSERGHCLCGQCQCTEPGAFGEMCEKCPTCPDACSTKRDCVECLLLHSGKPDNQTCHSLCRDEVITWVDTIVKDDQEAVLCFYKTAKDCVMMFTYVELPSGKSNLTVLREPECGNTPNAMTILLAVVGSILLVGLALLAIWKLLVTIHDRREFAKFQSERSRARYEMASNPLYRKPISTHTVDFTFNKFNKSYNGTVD
GP IIb/IIIa, sequence (P08514 32-887 limits assumed): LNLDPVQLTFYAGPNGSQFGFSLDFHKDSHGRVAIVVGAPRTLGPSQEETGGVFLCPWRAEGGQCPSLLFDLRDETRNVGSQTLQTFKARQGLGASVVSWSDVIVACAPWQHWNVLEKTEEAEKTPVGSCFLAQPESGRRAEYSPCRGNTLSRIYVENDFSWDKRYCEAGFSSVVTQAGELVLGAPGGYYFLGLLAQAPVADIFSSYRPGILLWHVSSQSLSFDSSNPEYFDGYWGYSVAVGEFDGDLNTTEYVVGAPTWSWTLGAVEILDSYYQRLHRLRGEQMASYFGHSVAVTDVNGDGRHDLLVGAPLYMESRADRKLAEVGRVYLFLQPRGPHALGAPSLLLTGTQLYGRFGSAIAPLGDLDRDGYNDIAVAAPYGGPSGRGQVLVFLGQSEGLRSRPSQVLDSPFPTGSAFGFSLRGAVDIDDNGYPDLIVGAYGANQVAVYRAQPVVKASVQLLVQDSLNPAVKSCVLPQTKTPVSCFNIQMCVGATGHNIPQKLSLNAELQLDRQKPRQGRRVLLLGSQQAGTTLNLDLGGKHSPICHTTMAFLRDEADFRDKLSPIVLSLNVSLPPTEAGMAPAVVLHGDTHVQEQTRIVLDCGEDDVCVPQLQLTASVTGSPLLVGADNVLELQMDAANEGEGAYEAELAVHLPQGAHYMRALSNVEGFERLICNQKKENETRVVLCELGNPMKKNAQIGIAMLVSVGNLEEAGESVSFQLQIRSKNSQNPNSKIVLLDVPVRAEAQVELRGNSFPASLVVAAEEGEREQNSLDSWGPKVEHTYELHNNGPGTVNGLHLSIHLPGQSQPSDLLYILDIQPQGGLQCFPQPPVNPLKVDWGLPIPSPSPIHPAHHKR
GP IIb/IIIa, sequence (P08514 891-1039 partner limits assumed): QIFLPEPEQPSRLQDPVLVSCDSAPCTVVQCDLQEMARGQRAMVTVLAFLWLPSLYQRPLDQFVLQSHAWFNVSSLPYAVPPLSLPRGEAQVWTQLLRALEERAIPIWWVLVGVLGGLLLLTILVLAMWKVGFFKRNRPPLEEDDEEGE
GP IIb/IIIa, sequence (P05106 27-788): as the sequence (P05106 27-788) above

Row | SMILES | IC50 (Human αvβ3; read-out: αvβ3IC50) [µM] | IC50 (GP IIb/IIIa; read-out: αIIbβ3 IC50) [µM] | IC50 (human purified αVβ5; read-out: αvβ5 IC50) [µM] | IC50 (GP IIb/IIIa; αIIbβ3 IC50 (uM)) [µM] | IC50 (Human αvβ3; αvβ3IC50 (uM)) [µM] | IC50 (human purified αVβ5; αvβ5 IC50 (uM)) [µM]
1 | COc1ccc(C(CCC2CCN(C(=O)CCc3ccc4c(n3)NCCC4)CC2)CC(=O)O)cn1 (single isomer, unassigned) [Cpd 21b, 6-methoxy-β-[2-[1-[1-oxo-3-(5,6,7,8-tetrahydro-1,8-naphthyridin-2-yl)propyl]-4-piperidinyl]ethyl]-3-pyridinepropanoic acid] | 0.405 | 1.97 | 0.28 |  |  | 
2 | COc1ccc(C(CC(=O)O)CC2CCN(C(=O)CCc3ccc4c(n3)NCCC4)CC2)cn1 (single isomer, unassigned) [Cpd 28a, 6-methoxy-β-[[1-[1-oxo-3-(5,6,7,8-tetrahydro-1,8-naphthyridin-2-yl)propyl]-4-piperidinyl]methyl]-3-pyridinepropanoic acid] | 0.0003 ± 0.0002 |  | 0.0042 ± 0.0018 | 1.83 ± 0.57 |  | 
3 | COc1ccc(C(CC(=O)O)CC2CCN(C(=O)CCc3ccc4c(n3)NCCC4)CC2)cn1 (single isomer, unassigned) [Cpd 28b, 6-methoxy-β-[[1-[1-oxo-3-(5,6,7,8-tetrahydro-1,8-naphthyridin-2-yl)propyl]-4-piperidinyl]methyl]-3-pyridinepropanoic acid] | 0.0208 ± 0.0053 | 24.3 | 0.126 ± 0.0448 |  |  | 
4 | O=C(O)CC(CC1CCN(C(=O)CCc2ccc3c(n2)NCCC3)CC1)c1cccc(F)c1 (single isomer, unassigned) [Cpd 30a, β-(3-fluorophenyl)-1-[1-oxo-3-(5,6,7,8-tetrahydro-1,8-naphthyridin-2-yl)propyl]-4-piperidinebutanoic acid] | 0.0004 ± 0.0002 | 2.93 ± 1.86 | 0.0019 ± 0.0004 |  |  | 
5 | O=C(O)CC(CC1CCN(C(=O)CCc2ccc3c(n2)NCCC3)CC1)c1cccc(F)c1 (single isomer, unassigned) [Cpd 30b, β-(3-fluorophenyl)-1-[1-oxo-3-(5,6,7,8-tetrahydro-1,8-naphthyridin-2-yl)propyl]-4-piperidinebutanoic acid] | 0.0317 ± 0.0147 | > 50 | 0.0482 ± 0.0028 |  |  | 
6 | O=C(O)CC(CC1CCN(C(=O)CCc2ccc3c(n2)NCCC3)CC1)c1ccc2c(c1)OCC2 (single isomer, unassigned) [Cpd 36a, 3-(2,3-Dihydro-benzofuran-6-yl)-4-[1-(3-5,6,7,8-tetrahydro-[1,8]naphthyridin-2-yl-propionyl)-piperidin-4-yl]-butyric acid] | 0.0004 | 0.79 ± 0.05 | 0.0009 ± 0.0006 |  |  | 
7 | O=C(O)CC(CC1CCN(C(=O)CCc2ccc3c(n2)NCCC3)CC1)c1ccc2c(c1)OCC2 (single isomer, unassigned) [Cpd 36b, 3-(2,3-Dihydro-benzofuran-6-yl)-4-[1-(3-5,6,7,8-tetrahydro-[1,8]naphthyridin-2-yl-propionyl)-piperidin-4-yl]-butyric acid] | 0.084 | > 50 | 0.129 |  |  | 
8 | O=C(O)CC(CC1CCN(C(=O)CCc2ccc3c(n2)NCCC3)CC1)c1ccc2ccccc2c1 (single isomer, unassigned) [Cpd 56a, 3-Naphthalen-2-yl-4-[1-(3-5,6,7,8-tetrahydro-[1,8]naphthyridin-2-yl-propionyl)-piperidin-4-yl]-butyric acid] | 0.0005 ± 0.0002 | 14.7 | 0.0265 ± 0.0034 |  |  | 
9 | O=C(O)CC(c1cnc2c(c1)CCCC2)C1CCN(C(=O)CCCc2ccc3c(n2)NCCC3)CC1 (single isomer, unassigned) [Cpd 58a, 5,6,7,8-Tetrahydro-β-[1-[1-oxo-4-(5,6,7,8-tetrahydro-1,8-naphthyridin-2-yl)butyl]-4-piperidinyl]-3-quinolinepropanoic acid] | 0.0004 ± 0.0003 | 1.44 ± 0.39 | 0.0323 ± 0.0082 |  |  | 
10 | O=C(O)CC(c1cnc2c(c1)CCCC2)C1CCN(C(=O)CCCc2ccc3c(n2)NCCC3)CC1 (single isomer, unassigned) [Cpd 58b, 5,6,7,8-Tetrahydro-β-[1-[1-oxo-4-(5,6,7,8-tetrahydro-1,8-naphthyridin-2-yl)butyl]-4-piperidinyl]-3-quinolinepropanoic acid] | 0.083 ± 0.02 | 35.5 | 0.576 ± 0.149 |  |  | 
11 | O=C(O)CCC1CCN(C(=O)Cc2cccc(NC3=NCCCN3)c2)CC1 [Cpd 1, 1-[[3-[(1,4,5,6-Tetrahydro-2-pyrimidinyl)amino]phenyl]acetyl]-4-piperidinepropanoic acid] | 0.056 ± 0.007 | 4.33 ± 0.15 | > 5 |  |  | 
12 | O=C(O)CC(c1cnc2ccccc2c1)C1CCN(C(=O)Cc2cccc(NC3=NCC(O)CN3)c2)CC1 (stereo not drawn) [Cpd 3, β-[1-[[3-[(1,4,5,6-Tetrahydro-5-hydroxy-2-pyrimidinyl)amino]phenyl]acetyl]-4-piperidinyl]-3-quinolinepropanoic acid] | 0.0036 ± 0.0004 | 0.21 | 2.5 |  |  | 
13 | O=C(O)CC(c1cnc2ccccc2c1)C1CCN(C(=O)CCCc2ccc3c(n2)NCCC3)CC1 (stereo not drawn) [Cpd 4, β-[1-[1-Oxo-4-(5,6,7,8-tetrahydro-1,8-naphthyridin-2-yl)butyl]-4-piperidinyl]-3-quinolinepropanoic acid] |  |  |  | 0.87 ± 0.19 | 0.0005 ± 0.0001 | 0.0355 ± 0.0089
14 | O=C(O)CC(C1CCN(C(=O)CCCc2ccc3c(n2)NCCC3)CC1)C1CNc2ccccc2C1 (stereo not drawn) [Cpd 5, 1,2,3,4-Tetrahydro-β-[1-[1-oxo-4-(5,6,7,8-tetrahydro-1,8-naphthyridin-2-yl)butyl]-4-piperidinyl]-3-quinolinepropanoic acid] |  |  |  | 14.8 ± 0.68 | 0.0037 ± 0.0014 | 0.261 ± 0.0569
15 | O=C(O)CC(CCC1CCN(C(=O)c2cccc(NC3=NCCCN3)c2)CC1)c1cccnc1 (stereo not drawn) [Cpd 6, β-[2-[1-[3-[(1,4,5,6-Tetrahydro-2-pyrimidinyl)amino]benzoyl]-4-piperidinyl]ethyl]-3-pyridinepropanoic acid] | 0.0076 ± 0.0021 | 1.62 ± 0.05 | 0.54 |  |  | 
16 | O=C(O)CC(CCC1CCN(C(=O)c2cccc(NC3=NCC(O)CN3)c2)CC1)c1cccnc1 (stereo not drawn) [Cpd 7, β-[2-[1-[3-[(1,4,5,6-Tetrahydro-5-hydroxy-2-pyrimidinyl)amino]benzoyl]-4-piperidinyl]ethyl]-3-pyridinepropanoic acid] | 0.0082 ± 0.0014 | 1.67 ± 0.74 | 0.0395 ± 0.0085 |  |  | 
17 | O=C(O)CC(CCC1CCN(C(=O)CCc2ccc3c(n2)NCCC3)CC1)c1cccnc1 (stereo not drawn) [Cpd 8, β-[2-[1-[1-Oxo-3-(5,6,7,8-tetrahydro-1,8-naphthyridin-2-yl)propyl]-4-piperidinyl]ethyl]-3-pyridinepropanoic acid] | 0.0179 ± 0.0034 | 1.36 ± 0.43 | 0.253 |  |  | 
18 | COc1ccc(C(CCC2CCN(C(=O)c3cccc(NC4=NCC(O)CN4)c3)CC2)CC(=O)O)cn1 (stereo not drawn) [Cpd 10, 6-Methoxy-β-[2-[1-[3-[(1,4,5,6-tetrahydro-5-hydroxy-2-pyrimidinyl)amino]benzoyl]-4-piperidinyl]ethyl]-3-pyridinepropanoic acid] | 0.0024 ± 0.0013 | 1.67 | 0.0335 ± 0.0075 |  |  | 
19 | O=C(O)CC(CC1CCN(C(=O)CCc2ccc3c(n2)NCCC3)CC1)c1ccc2c(c1)OCO2 (stereo not drawn) [Cpd 11, β-(1,3-Benzodioxol-5-yl)-1-[1-oxo-3-(5,6,7,8-tetrahydro-1,8-naphthyridin-2-yl)propyl]-4-piperidinebutanoic acid] | 0.0011 ± 0.0002 | 2.52 ± 0.3 | 0.0023 ± 0.0009 |  |  | 
20 | O=C(O)CC(CCC1CCN(C(=O)c2cccc(NC3=NCCCN3)c2)CC1)c1cnc2ccccc2c1 (stereo not drawn) [Cpd 12, β-[2-[1-[3-[(1,4,5,6-Tetrahydro-2-pyrimidinyl)amino]benzoyl]-4-piperidinyl]ethyl]-3-quinolinepropanoic acid] | 0.0042 ± 0.0014 | 0.136 ± 0.003 | 0.078 ± 0.017 |  |  | 
21 | O=C(O)CC(CC1CCN(C(=O)CCc2ccc3c(n2)NCCC3)CC1)c1ccccc1 (stereo not drawn) [Cpd 13, 1-[1-oxo-3-(5,6,7,8-tetrahydro-1,8-naphthyridin-2-yl)propyl]-β-phenyl-4-piperidinebutanoic acid] | 0.0032 ± 0.0006 | 11.1 ± 3.4 | 0.036 ± 0.0133 |  |  | 
